According to PubChem BioAssay (NCI):
Where “and” joins values, the source holds several entries; their conditions need not be identical. Equal entries are not always repeated.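 How tested: cells in 96-well plates exposed to compound for 48 hours at five concentrations. GI50 = concentration required for 50% inhibition of growth. At the TGI there is no net growth.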

Experiments:
Test in all cases: inhibition of tumour cell growth, NCI panel, 48 h
CAKI-1 renal = test system: CAKI-1 renal
HCT-116 colon = test system: HCT-116 colon
IGROV1 ovarian = test system: IGROV1 ovarian
MDA-MB-435 = test system: MDA-MB-435
SF-295 CNS = test system: SF-295 CNS
SK-OV-3 ovarian = test system: SK-OV-3 ovarian
SNB-19 CNS = test system: SNB-19 CNS
T-47D breast = test system: T-47D breast
UACC-257 melanoma = test system: UACC-257 melanoma
NCI-H23 lung = test system: NCI-H23 lung
TK-10 renal = test system: TK-10 renal

| SMILES | TGI (CAKI-1 renal) | TGI (HCT-116 colon) | TGI (IGROV1 ovarian) | TGI (MDA-MB-435) | TGI (SF-295 CNS) | TGI (SK-OV-3 ovarian) [µM] | TGI (SNB-19 CNS) [µM] | TGI (T-47D breast) [µM] | TGI (UACC-257 melanoma) | TGI (NCI-H23 lung) | TGI (TK-10 renal) | GI50 (CAKI-1 renal) [µM] | GI50 (TK-10 renal) [µM] |
| --- | --- | --- | --- | --- | --- | --- | --- | --- | --- | --- | --- | --- | --- |
| O=[N+]([O-])c1ccc(SN=S=NSc2cccc(SN=S=NSc3ccc([N+](=O)[O-])cc3)c2)cc1 | 41.1 µM | > 100 µM | > 100 µM | 71.2 µM | > 100 µM | > 100 | > 100 | 38.9 | > 100 µM | – | – | – | – |
| O=C(Cc1ccccc1)NN1C(=O)C(Cl)C1c1ccccc1Cl (stereo not drawn) | > 100 µM | > 100 µM | > 93.1 µM | – | > 100 µM | > 100 | > 100 | – | > 100 µM | > 100 µM | > 100 µM | – | – |
| C=CCCC1(O)C(O)C(CO)O[C@H](O[C@@]2(CO)OC(CO)C(O)C2O)C1O (stereo partly drawn) | > 100 µM | > 100 µM | > 100 µM | > 100 µM | > 100 µM | – | > 100 | – | > 100 µM | > 100 µM | > 100 µM | – | – |
| CCS(=O)C(=O)N(O)c1ccc(Cl)cc1 (stereo not drawn) | 38.5 µM | > 100 µM | – | 30 µM | > 100 µM | > 100 | > 100 | > 100 | 75.8 µM | – | > 100 µM | – | – |
| Brc1ccc(C2C3CSc4ccccc4C3=NN2c2ccccc2)cc1 (stereo not drawn) | > 100 µM | > 100 µM | > 100 µM | > 100 µM | – | > 100 | > 100 | 86.3 | 95.6 µM | > 100 µM | > 100 µM | – | – |
| CCOC(=O)N/N=C(/N)c1cccc(Br)c1 | > 100 µM | > 100 µM | > 100 µM | – | > 100 µM | > 100 | > 100 | > 100 | > 100 µM | > 100 µM | > 100 µM | – | – |
| Clc1ccc(Nc2nnc(CNc3ccc(-c4nnc(Nc5ccc(Cl)cc5)s4)cc3)s2)cc1 | > 100 µM | 30.8 µM | > 100 µM | > 100 µM | 84.3 µM | > 100 | > 100 | – | > 100 µM | > 100 µM | > 100 µM | – | – |
| CC(C)N(C(=O)C12C3C4C1C1C2C3C41C#N)C(C)C (stereo not drawn) | > 100 µM | > 100 µM | > 100 µM | – | > 100 µM | > 100 | > 100 | – | > 100 µM | > 100 µM | > 100 µM | – | – |
| CCOc1ccccc1N=Nc1ccc2oc(=O)c(C(C)=O)cc2c1 | > 100 µM | > 100 µM | > 100 µM | – | > 100 µM | > 100 | > 100 | – | > 100 µM | > 100 µM | > 100 µM | – | – |
| COc1cc2c(c(OC)c1OC)-c1ccc(SC)c(=O)cc1[C@@H](NCc1ccc(F)cc1)CC2 | 51.7 µM and > 100 µM | 0.079 µM | 75 µM | – | 22 µM and > 100 µM | – | 75 | – | 44.1 µM and 55.7 µM | – | 75 µM and > 100 µM | < 0.0075 | 0.182 |
| COCC(C)(C)N=CN1Cc2cc3ccccc3nc2C1 | > 100 µM | > 100 µM | > 100 µM | – | > 100 µM | > 100 | > 100 | – | > 100 µM | > 100 µM | > 100 µM | – | – |
| CCCCCCCC/C=C1\CCC(CN(C)C)C1=O (stereo not drawn) | 10 µM | 7.34 µM | 20.8 µM | – | 18 µM | 30.9 | 30.4 | – | 16.8 µM | 24.4 µM | 6.03 µM | – | – |
| O=C1NC2NC3NC(=O)NC3NC2N1 (stereo not drawn) | > 100 µM | > 100 µM | > 100 µM | > 100 µM | > 100 µM | – | > 100 | – | > 100 µM | > 100 µM | – | – | – |
| COc1ccc(-n2c(CCC(=O)O)nc3c2C(=O)c2ccccc2C3=O)cc1 | > 100 µM | > 100 µM | – | > 100 µM | > 100 µM | > 100 | > 100 | > 100 | > 100 µM | > 100 µM | > 100 µM | – | – |
| COC(=O)C(=O)C(C(=O)OC)C(=O)C(=O)Nc1c(C)cccc1C (stereo not drawn) | > 100 µM | > 100 µM | > 100 µM | – | > 100 µM | > 100 | > 100 | – | > 100 µM | > 100 µM | > 100 µM | – | – |
| C=C1CC(C)(COc2ccc3c(C)c(Cl)c(=O)oc3c2)OC1=O (stereo not drawn) | 6.58 µM | 1.57 µM | 3.94 µM | 11.7 µM | 21.4 µM | 17.6 | 26.7 | – | 3.48 µM | 4.2 µM | 3.06 µM | – | – |
| CC(=O)Nc1[nH]n(C)c(=O)c1-c1nnc(C)s1 | > 100 µM | > 100 µM | > 100 µM | – | – | > 100 | > 100 | – | > 100 µM | > 100 µM | > 100 µM | – | – |
| Cc1ccc(NC(=O)CCCC(=O)CC(=O)c2ccc(Br)cc2)cc1 | > 100 µM | > 100 µM | > 100 µM | – | > 100 µM | > 100 | > 100 | – | > 100 µM | > 100 µM | > 100 µM | – | – |
| CC1=C(c2nc3ccccc3s2)C(=O)OC1(C)C | > 100 µM | > 100 µM | – | – | > 100 µM | > 100 | > 100 | – | > 100 µM | > 100 µM | – | – | – |
| CC(C)(C)OC(=O)NC1CCCC1C(=O)C1=CCCC1 (stereo not drawn) | – | > 100 µM | > 100 µM | > 100 µM | – | > 100 | > 100 | > 100 | > 100 µM | > 100 µM | – | – | – |
| CC1=CC(=O)CC2(C)CCC(C(C)CC(=O)CC(C)C)CC12OO (stereo not drawn) | 33.5 µM and 33.4 µM | 30.2 µM and 29.7 µM | 46.6 µM and 31 µM | 31.3 µM and 34.2 µM | 31 µM and 30 µM | – | > 100 | – | 31.5 µM and 33 µM | 39.8 µM and 54.9 µM | 32.8 µM and 34.1 µM | – | – |
| CC(C)c1cccc(C(C)C)c1NC(=O)C(=O)Cc1nc2ccc([N+](=O)[O-])cc2[nH]c1=O | > 100 µM | > 100 µM | > 100 µM | – | > 100 µM | > 100 | > 100 | – | > 100 µM | > 100 µM | > 100 µM | – | – |
| Cc1c(O)c(=O)ccn1CCN | > 100 µM | > 100 µM | > 100 µM | – | – | > 100 | > 100 | – | > 100 µM | > 100 µM | > 100 µM | – | – |
| N#CCCn1[nH]c(=O)c(Cl)c(Cl)c1=O | – | 29.1 µM | 33.6 µM | – | 32.1 µM | – | 29 | – | 37.7 µM | 29.3 µM | 68.4 µM | – | – |
